The values below come from PubChem BioAssay (NCI).

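Five compound concentrations were applied to cells in 96-well plates for 48 hours; endpoints were derived by simple linear interpolation of the resulting dose-response curve. TGI: concentration producing complete growth inhibition.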 Where only a bound is given, the exact number is not on record here.

The first experiment concerns SK-OV-3 ovarian. Nature of the experiment: DTP human tumour cell line panel, 48 h.
Consider `O=c1c2sc(=S)n(-c3ccc(F)cc3)c2ncn1/N=C/c1ccc(F)cc1F`, for which the TGI was 53.7 µM.

The test system of a further experiment is M14 melanoma. Nature of the experiment: DTP human tumour cell line panel, 48 h.
Turning to `CCN(CC)/C(SCc1ccccc1)=C(\C(Cl)=C(Cl)Cl)[N+](=O)[O-]`, the TGI was 29.3 µM.

For the compound `Cc1ccc2c(c1)C(=O)C1(Cc3ccccc3C1=O)C2` (stereo not given), the TGI is greater than 100 µM.

For the compound `COc1cc(/C=C/C(=O)CC(=O)/C=C/c2ccc(OC(=O)CCCCC3CCSS3)c(OC)c2)ccc1OC(=O)CCCCC1CCSS1` (stereo not given), the TGI was greater than 100 µM.

Take `O=c1c2sc(=S)n(-c3ccc(F)cc3)c2ncn1/N=C/c1ccc(F)cc1F`: the TGI worked out at 67.4 µM.

For another experiment, the system named is SF-268 CNS. Description: DTP human tumour cell line panel, 48 h.
For `CCN(CC)/C(SCc1ccccc1)=C(\C(Cl)=C(Cl)Cl)[N+](=O)[O-]`, the TGI was found to be 46.6 µM.

`Cc1ccc2c(c1)C(=O)C1(Cc3ccccc3C1=O)C2` (stereo not given): the TGI is greater than 100 µM.

In turn, `COc1cc(/C=C/C(=O)CC(=O)/C=C/c2ccc(OC(=O)CCCCC3CCSS3)c(OC)c2)ccc1OC(=O)CCCCC1CCSS1` (stereo not given) gave a TGI greater than 100 µM.

Take `O=c1c2sc(=S)n(-c3ccc(F)cc3)c2ncn1/N=C/c1ccc(F)cc1F`: the TGI worked out at 43.1 µM.

The next experiment concerns SK-MEL-2 melanoma. Nature of the experiment: DTP human tumour cell line panel, 48 h.
Turning to `CCN(CC)/C(SCc1ccccc1)=C(\C(Cl)=C(Cl)Cl)[N+](=O)[O-]`, the TGI came to 45.5 µM.

`COc1cc(/C=C/C(=O)CC(=O)/C=C/c2ccc(OC(=O)CCCCC3CCSS3)c(OC)c2)ccc1OC(=O)CCCCC1CCSS1` (stereo not given) displayed a TGI greater than 100 µM.

On to `O=c1c2sc(=S)n(-c3ccc(F)cc3)c2ncn1/N=C/c1ccc(F)cc1F`, for which the TGI was found to be 85.6 µM.

A further experiment relates to SF-539 CNS. Description: DTP human tumour cell line panel, 48 h.
The compound `CCN(CC)/C(SCc1ccccc1)=C(\C(Cl)=C(Cl)Cl)[N+](=O)[O-]` had a TGI of 39.4 µM.

For `Cc1ccc2c(c1)C(=O)C1(Cc3ccccc3C1=O)C2` (stereo not given), the TGI is greater than 100 µM.

For `COc1cc(/C=C/C(=O)CC(=O)/C=C/c2ccc(OC(=O)CCCCC3CCSS3)c(OC)c2)ccc1OC(=O)CCCCC1CCSS1` (stereo not given), the TGI was greater than 100 µM.

The test system of a further experiment is MDA-MB-435. Nature of the experiment: DTP human tumour cell line panel, 48 h.
Turning to `CCN(CC)/C(SCc1ccccc1)=C(\C(Cl)=C(Cl)Cl)[N+](=O)[O-]`, the TGI was 32 µM.

Turning to `Cc1ccc2c(c1)C(=O)C1(Cc3ccccc3C1=O)C2` (stereo not given), the TGI was greater than 100 µM.

Compound `COc1cc(/C=C/C(=O)CC(=O)/C=C/c2ccc(OC(=O)CCCCC3CCSS3)c(OC)c2)ccc1OC(=O)CCCCC1CCSS1` (stereo not given) had a TGI greater than 100 µM.

The compound `O=c1c2sc(=S)n(-c3ccc(F)cc3)c2ncn1/N=C/c1ccc(F)cc1F` yielded a TGI greater than 100 µM.

In another experiment the test system is MALME-3M melanoma. Description: DTP human tumour cell line panel, 48 h.
In the case of `CCN(CC)/C(SCc1ccccc1)=C(\C(Cl)=C(Cl)Cl)[N+](=O)[O-]`, the TGI was 21.8 µM.

Consider `Cc1ccc2c(c1)C(=O)C1(Cc3ccccc3C1=O)C2` (stereo not given), for which the TGI is greater than 100 µM.

In turn, `COc1cc(/C=C/C(=O)CC(=O)/C=C/c2ccc(OC(=O)CCCCC3CCSS3)c(OC)c2)ccc1OC(=O)CCCCC1CCSS1` (stereo not given) displayed a TGI greater than 100 µM.

As for `O=c1c2sc(=S)n(-c3ccc(F)cc3)c2ncn1/N=C/c1ccc(F)cc1F`, the TGI came out at 41.6 µM.

A further experiment has as its system ACHN renal. Description: DTP human tumour cell line panel, 48 h.
Compound `CCN(CC)/C(SCc1ccccc1)=C(\C(Cl)=C(Cl)Cl)[N+](=O)[O-]` returned a TGI of 29.8 µM.

For `Cc1ccc2c(c1)C(=O)C1(Cc3ccccc3C1=O)C2` (stereo not given), the TGI was greater than 100 µM.

For the compound `COc1cc(/C=C/C(=O)CC(=O)/C=C/c2ccc(OC(=O)CCCCC3CCSS3)c(OC)c2)ccc1OC(=O)CCCCC1CCSS1` (stereo not given), the TGI is greater than 100 µM.

In turn, `O=c1c2sc(=S)n(-c3ccc(F)cc3)c2ncn1/N=C/c1ccc(F)cc1F` had a TGI greater than 100 µM.

A further experiment has as its system SF-295 CNS. Description: DTP human tumour cell line panel, 48 h.
Compound `CCN(CC)/C(SCc1ccccc1)=C(\C(Cl)=C(Cl)Cl)[N+](=O)[O-]` registered a TGI greater than 100 µM.

`Cc1ccc2c(c1)C(=O)C1(Cc3ccccc3C1=O)C2` (stereo not given) displayed a total growth inhibition concentration (TGI) greater than 100 µM.

`COc1cc(/C=C/C(=O)CC(=O)/C=C/c2ccc(OC(=O)CCCCC3CCSS3)c(OC)c2)ccc1OC(=O)CCCCC1CCSS1` (stereo not given) gave a TGI greater than 100 µM.

For `O=c1c2sc(=S)n(-c3ccc(F)cc3)c2ncn1/N=C/c1ccc(F)cc1F`, the TGI was 65.8 µM.

The subject of a further experiment is OVCAR-4 ovarian. Nature of the experiment: DTP human tumour cell line panel, 48 h.
`CCN(CC)/C(SCc1ccccc1)=C(\C(Cl)=C(Cl)Cl)[N+](=O)[O-]` registered a TGI of 44.6 µM.

`Cc1ccc2c(c1)C(=O)C1(Cc3ccccc3C1=O)C2` (stereo not given) yielded a TGI greater than 100 µM.

As to `COc1cc(/C=C/C(=O)CC(=O)/C=C/c2ccc(OC(=O)CCCCC3CCSS3)c(OC)c2)ccc1OC(=O)CCCCC1CCSS1` (stereo not given), the TGI is greater than 100 µM.

As for `O=c1c2sc(=S)n(-c3ccc(F)cc3)c2ncn1/N=C/c1ccc(F)cc1F`, the TGI was determined as 46.8 µM.

The subject of the next experiment is A549 NSCLC. Description: DTP human tumour cell line panel, 48 h.
Take `CCN(CC)/C(SCc1ccccc1)=C(\C(Cl)=C(Cl)Cl)[N+](=O)[O-]`: the TGI stood at 38.1 µM.

`Cc1ccc2c(c1)C(=O)C1(Cc3ccccc3C1=O)C2` (stereo not given) had a TGI greater than 100 µM.

`COc1cc(/C=C/C(=O)CC(=O)/C=C/c2ccc(OC(=O)CCCCC3CCSS3)c(OC)c2)ccc1OC(=O)CCCCC1CCSS1` (stereo not given) had a TGI greater than 100 µM.

In turn, `O=c1c2sc(=S)n(-c3ccc(F)cc3)c2ncn1/N=C/c1ccc(F)cc1F` gave a TGI greater than 100 µM.

A further experiment concerns PC-3 prostate. Nature of the experiment: DTP human tumour cell line panel, 48 h.
`CCN(CC)/C(SCc1ccccc1)=C(\C(Cl)=C(Cl)Cl)[N+](=O)[O-]`: the TGI is 47.1 µM.

Consider `Cc1ccc2c(c1)C(=O)C1(Cc3ccccc3C1=O)C2` (stereo not given), for which the TGI is greater than 100 µM.

Compound `COc1cc(/C=C/C(=O)CC(=O)/C=C/c2ccc(OC(=O)CCCCC3CCSS3)c(OC)c2)ccc1OC(=O)CCCCC1CCSS1` (stereo not given) came in with a TGI greater than 100 µM.

With `O=c1c2sc(=S)n(-c3ccc(F)cc3)c2ncn1/N=C/c1ccc(F)cc1F`, the TGI is greater than 100 µM.

The next experiment deals with NCI-H226 lung. Description: DTP human tumour cell line panel, 48 h.
`CCN(CC)/C(SCc1ccccc1)=C(\C(Cl)=C(Cl)Cl)[N+](=O)[O-]`: the TGI was 39.1 µM.

For the compound `Cc1ccc2c(c1)C(=O)C1(Cc3ccccc3C1=O)C2` (stereo not given), the total growth inhibition concentration (TGI) was greater than 100 µM.

For `COc1cc(/C=C/C(=O)CC(=O)/C=C/c2ccc(OC(=O)CCCCC3CCSS3)c(OC)c2)ccc1OC(=O)CCCCC1CCSS1` (stereo not given), the TGI was greater than 100 µM.

As for `O=c1c2sc(=S)n(-c3ccc(F)cc3)c2ncn1/N=C/c1ccc(F)cc1F`, the TGI stood at 87 µM.

The subject of a further experiment is MDA-N. Description: DTP human tumour cell line panel, 48 h.
For `CCN(CC)/C(SCc1ccccc1)=C(\C(Cl)=C(Cl)Cl)[N+](=O)[O-]`, the TGI is 33.8 µM.

As for `Cc1ccc2c(c1)C(=O)C1(Cc3ccccc3C1=O)C2` (stereo not given), the TGI is greater than 100 µM.

With `COc1cc(/C=C/C(=O)CC(=O)/C=C/c2ccc(OC(=O)CCCCC3CCSS3)c(OC)c2)ccc1OC(=O)CCCCC1CCSS1` (stereo not given), the TGI was greater than 100 µM.

Compound `O=c1c2sc(=S)n(-c3ccc(F)cc3)c2ncn1/N=C/c1ccc(F)cc1F` had a TGI greater than 100 µM.

In another experiment the test system is COLO 205 colon. Nature of the experiment: DTP human tumour cell line panel, 48 h.
The compound `CCN(CC)/C(SCc1ccccc1)=C(\C(Cl)=C(Cl)Cl)[N+](=O)[O-]` yielded a TGI of 38.9 µM.

In the case of `Cc1ccc2c(c1)C(=O)C1(Cc3ccccc3C1=O)C2` (stereo not given), the TGI is greater than 100 µM.

In the case of `COc1cc(/C=C/C(=O)CC(=O)/C=C/c2ccc(OC(=O)CCCCC3CCSS3)c(OC)c2)ccc1OC(=O)CCCCC1CCSS1` (stereo not given), the TGI was greater than 100 µM.

For the compound `O=c1c2sc(=S)n(-c3ccc(F)cc3)c2ncn1/N=C/c1ccc(F)cc1F`, the TGI is greater than 100 µM.

Usually TGI stands for the concentration giving total growth inhibition. A low value points to more potent growth arrest.
